Measurements: ChEMBL document CHEMBL4715815, “Design, synthesis and biological evaluation of 7H-pyrrolo[2,3-d]pyrimidin-4-amine derivatives as selective Btk inhibitors with improved pharmacokinetic properties for the treatment of rheumatoid arthritis” (Eur J Med Chem, 2018)
pIC50: −log10 of the molar value. Calls of active or inactive are those of the source. The calls are words filed in the database; no cut-off is given here.

Assays:
[1] = molecular target: Tyrosine-protein kinase HCK (Homo sapiens, UniProt P08631); assay: Inhibition of HCK (unknown origin)
[2] = molecular target: Dual specificity mitogen-activated protein kinase kinase 2 (Homo sapiens, UniProt P36507); assay: Inhibition of MEK2 (unknown origin)
[3] = molecular target: Tyrosine-protein kinase FRK (Homo sapiens, UniProt P42685); assay: Inhibition of FRK (unknown origin)
THP-1 = assay: Cytotoxicity against human THP-1 cells assessed as reduction in cell viability incubated for 72 hrs by MTT assay; format: ADME, cell-based; conditions: THP-1, 72 h
[4] = AUC (0 to t) in Sprague-Dawley rat at 3 mg/kg, po measured up to 24 hrs by LC-MS/MS analysis; format: ADME, organism-based; parameters: route oral, dose 3 mg/kg, time <=24; conditions: in vivo
[5] = molecular target: T1, Tyrosine-protein kinase BTK (Homo sapiens, UniProt Q06187); assay: Inhibition of BTK in human U2932 cells assessed as reduction in PLCgamma2 Y1217 phosphorylation at 0.03 to 10 uM incubated for 1 hr by Western blot analysis; format: cell-based; conditions: dose 0.03-10 µM
[6] = molecular target: Macrophage colony-stimulating factor 1 receptor (Homo sapiens, UniProt P07333); assay: Inhibition of recombinant human FMS using Ulight-TK peptide as substrate incubate for 15 mins by LANCE assay
[7] = Toxicity in BALB/c mouse assessed as effect on spleen at 2 g/kg, po measured after 7 days of administration by histopathological analysis; conditions: in vivo, 168 h
[8] = Clearance in Sprague-Dawley rat at 3 mg/kg, iv measured up to 24 hrs by LC-MS/MS analysis; format: ADME, organism-based; conditions: in vivo
[9] = molecular target: Tyrosine-protein kinase Fyn (Homo sapiens, UniProt P06241); assay: Inhibition of recombinant human FYN using biotinyl-beta Abeta-Abeta AYQAEENTYDEYEN as substrate incubate for 60 mins by LANCE assay
[10] = Metabolic stability in human liver microsomes assessed as half life at 100 uM/L measured upto 90 mins by LC-MS/MS analysis; format: ADME, Microsome
[11] = molecular target: Tyrosine-protein kinase CSK (Homo sapiens, UniProt P41240); assay: Inhibition of CSK (unknown origin)
[12] = Tmax in Sprague-Dawley rat at 3 mg/kg, po measured up to 24 hrs by LC-MS/MS analysis; format: ADME, organism-based; conditions: in vivo
[13] = molecular target: Ribosomal protein S6 kinase alpha-2 (Homo sapiens, UniProt Q15349); assay: Inhibition of RSK3 (unknown origin)
[14] = molecular target: T1, Tyrosine-protein kinase BTK; assay: Inhibition of BTK in human Daudi cells assessed as reduction in BTK Y223 phosphorylation incubated for 1 hr by Western blot analysis; format: cell-based; conditions: dose 0.03-10 µM
[15] = Metabolic stability in monkey liver microsomes assessed as half life at 100 uM/L measured upto 90 mins by LC-MS/MS analysis; format: ADME, Macaca mulatta, Microsome; conditions: rhesus monkey
Mus musculus [16] = assay: Antiarthritic activity in DBA/1J mouse model of collagen-induced arthritis assessed as reduction in paw thickness at 20 mg/kg, po administered for 30 days and measured on day 30; format: functional, organism-based; conditions: time 30.0 day
[17] = Toxicity in BALB/c mouse assessed as effect on heart at 2 g/kg, po measured after 7 days of administration by histopathological analysis; conditions: in vivo, 168 h
[18] = molecular target: Tyrosine-protein kinase Lck (Homo sapiens, UniProt P06239); assay: Inhibition of recombinant human LCK using Ulight-Poly GAT[EAY(1:1:1)]n as substrate incubate for 10 mins by LANCE assay
[19] = molecular target: Proto-oncogene tyrosine-protein kinase Src (Homo sapiens, UniProt P12931); assay: Inhibition of recombinant human SRC using Ulight-Poly GAT[EAY(1:1:1)]n as substrate incubate for 10 mins by LANCE assay
[20] = molecular target: Tyrosine-protein kinase TXK (Homo sapiens, UniProt P42681); assay: Inhibition of TXK (unknown origin)
[21] = molecular target: Calcium/calmodulin-dependent protein kinase type 1 (Homo sapiens, UniProt Q14012); assay: Inhibition of CAMK1 (unknown origin)
[22] = Metabolic stability in human liver microsomes assessed as intrinsic clearance at 100 uM/L measured upto 90 mins by LC-MS/MS analysis; format: ADME, Microsome; conditions: 1.5 h
[23] = Metabolic stability in dog liver microsomes assessed as intrinsic clearance at 100 uM/L measured upto 90 mins by LC-MS/MS analysis; format: ADME, Canis lupus familiaris, Microsome; conditions: 1.5 h
[24] = molecular target: Ribosomal protein S6 kinase alpha-3 (Homo sapiens, UniProt P51812); assay: Inhibition of recombinant human RSK2 using Histone H3 full length as substrate incubate for 10 mins by LANCE assay
Mus musculus [25] = assay: Antiarthritic activity in DBA/1J mouse model of collagen-induced arthritis at 20 mg/kg, po administered for 30 days and measured on day 30; format: functional, organism-based; conditions: time 30.0 day
[26] = molecular target: Receptor tyrosine-protein kinase erbB-2 (Homo sapiens, UniProt P04626); assay: Inhibition of ErBB2 (unknown origin)
[27] = molecular target: Ribosomal protein S6 kinase alpha-6 (Homo sapiens, UniProt Q9UK32); assay: Inhibition of RSK4 (unknown origin)
[28] = molecular target: Calcium/calmodulin-dependent protein kinase kinase 2 (Homo sapiens, UniProt Q96RR4); assay: Inhibition of CAMKK2 (unknown origin)
[29] = molecular target: Tyrosine-protein kinase JAK3 (Homo sapiens, UniProt P52333); assay: Inhibition of recombinant human JAK3 using Ulight-CAGAGAIETDKEYYTVKD as substrate incubate for 60 mins by LANCE assay
[30] = molecular target: T1, Tyrosine-protein kinase BTK; assay: Inhibition of BTK in human Raji cells assessed as reduction in BTK Y223 phosphorylation incubated for 1 hr by Western blot analysis; format: cell-based; conditions: dose 0.03-10 µM
[31] = Toxicity in DBA/1J mouse assessed as effect on body weight at 20 mg/kg, po administered for 30 days and measured on day 30; format: organism-based; conditions: in vivo, 720 h, time 30 day
[32] = Metabolic stability in rat liver microsomes assessed as intrinsic clearance at 100 uM/L measured upto 90 mins by LC-MS/MS analysis; format: ADME, Microsome; conditions: 1.5 h
[33] = Metabolic stability in rat liver microsomes assessed as half life at 100 uM/L measured upto 90 mins by LC-MS/MS analysis; format: ADME, Microsome
[34] = molecular target: Mitogen-activated protein kinase kinase kinase 7 (Homo sapiens, UniProt O43318); assay: Inhibition of recombinant human TAK1 using Ulight-FLGFTYVAP as substrate incubate for 90 mins by LANCE assay
[35] = Toxicity in BALB/c mouse assessed as effect on liver at 2 g/kg, po measured after 7 days of administration by histopathological analysis; conditions: in vivo, 168 h
[36] = molecular target: Tyrosine-protein kinase Fgr (Homo sapiens, UniProt P09769); assay: Inhibition of FGR (unknown origin)
[37] = molecular target: Serine/threonine-protein kinase mTOR (Homo sapiens, UniProt P42345); assay: Inhibition of mTOR (unknown origin)
[38] = Toxicity in BALB/c mouse assessed as effect on kidney at 2 g/kg, po measured after 7 days of administration by histopathological analysis; conditions: in vivo, 168 h

T1 sequence (Q06187 whole entry): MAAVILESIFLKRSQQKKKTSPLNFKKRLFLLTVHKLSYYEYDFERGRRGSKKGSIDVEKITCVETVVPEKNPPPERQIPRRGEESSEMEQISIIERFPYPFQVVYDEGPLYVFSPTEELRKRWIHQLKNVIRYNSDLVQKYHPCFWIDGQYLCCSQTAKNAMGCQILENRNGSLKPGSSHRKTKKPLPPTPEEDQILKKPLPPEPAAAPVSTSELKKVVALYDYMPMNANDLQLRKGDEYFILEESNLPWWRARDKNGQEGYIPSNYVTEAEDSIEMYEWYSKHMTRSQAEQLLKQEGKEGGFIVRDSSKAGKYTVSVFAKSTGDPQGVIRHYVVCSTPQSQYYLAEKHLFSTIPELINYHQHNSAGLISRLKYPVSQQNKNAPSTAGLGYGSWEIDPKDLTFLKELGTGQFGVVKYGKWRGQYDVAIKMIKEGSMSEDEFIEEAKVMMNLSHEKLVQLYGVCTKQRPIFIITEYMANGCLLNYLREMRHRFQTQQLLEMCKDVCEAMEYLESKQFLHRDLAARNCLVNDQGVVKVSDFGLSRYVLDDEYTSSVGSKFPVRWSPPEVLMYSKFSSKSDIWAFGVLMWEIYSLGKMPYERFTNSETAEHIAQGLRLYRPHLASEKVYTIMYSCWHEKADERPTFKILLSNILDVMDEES
Sequence of Proto-oncogene tyrosine-protein kinase Src (P12931 2-536 limits assumed): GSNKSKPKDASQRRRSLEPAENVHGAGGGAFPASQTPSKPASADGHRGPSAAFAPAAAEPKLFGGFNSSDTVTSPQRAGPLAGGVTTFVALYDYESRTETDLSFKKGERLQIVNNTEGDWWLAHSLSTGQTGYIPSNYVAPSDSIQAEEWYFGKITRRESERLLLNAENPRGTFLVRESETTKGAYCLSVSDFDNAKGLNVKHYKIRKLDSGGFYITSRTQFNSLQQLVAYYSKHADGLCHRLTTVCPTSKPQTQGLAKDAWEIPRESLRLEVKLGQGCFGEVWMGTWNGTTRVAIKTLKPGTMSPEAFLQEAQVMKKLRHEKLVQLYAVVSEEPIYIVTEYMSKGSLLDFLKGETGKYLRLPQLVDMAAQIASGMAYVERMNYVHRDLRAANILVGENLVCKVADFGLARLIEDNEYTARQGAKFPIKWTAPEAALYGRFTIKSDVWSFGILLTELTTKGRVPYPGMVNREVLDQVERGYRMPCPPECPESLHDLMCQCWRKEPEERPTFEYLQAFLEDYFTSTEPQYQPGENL
Sequence of Mitogen-activated protein kinase kinase kinase 7 (O43318 whole entry): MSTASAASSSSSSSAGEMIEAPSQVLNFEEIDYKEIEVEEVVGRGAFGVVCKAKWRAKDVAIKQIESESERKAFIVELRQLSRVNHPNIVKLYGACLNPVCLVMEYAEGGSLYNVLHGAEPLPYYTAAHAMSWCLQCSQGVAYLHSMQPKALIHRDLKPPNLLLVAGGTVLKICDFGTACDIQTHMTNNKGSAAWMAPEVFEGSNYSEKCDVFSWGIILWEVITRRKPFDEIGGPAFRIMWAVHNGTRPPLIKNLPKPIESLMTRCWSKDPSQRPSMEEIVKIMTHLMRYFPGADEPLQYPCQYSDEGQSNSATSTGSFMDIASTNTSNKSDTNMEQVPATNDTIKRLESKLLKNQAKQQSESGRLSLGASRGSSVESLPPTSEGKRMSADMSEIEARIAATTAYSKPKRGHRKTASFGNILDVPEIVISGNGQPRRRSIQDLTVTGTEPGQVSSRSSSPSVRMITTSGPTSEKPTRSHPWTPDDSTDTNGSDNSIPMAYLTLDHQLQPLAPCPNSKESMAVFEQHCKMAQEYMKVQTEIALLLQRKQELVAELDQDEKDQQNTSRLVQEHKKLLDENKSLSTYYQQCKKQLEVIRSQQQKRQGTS
Sequence of Calcium/calmodulin-dependent protein kinase kinase 2 (Q96RR4 whole entry): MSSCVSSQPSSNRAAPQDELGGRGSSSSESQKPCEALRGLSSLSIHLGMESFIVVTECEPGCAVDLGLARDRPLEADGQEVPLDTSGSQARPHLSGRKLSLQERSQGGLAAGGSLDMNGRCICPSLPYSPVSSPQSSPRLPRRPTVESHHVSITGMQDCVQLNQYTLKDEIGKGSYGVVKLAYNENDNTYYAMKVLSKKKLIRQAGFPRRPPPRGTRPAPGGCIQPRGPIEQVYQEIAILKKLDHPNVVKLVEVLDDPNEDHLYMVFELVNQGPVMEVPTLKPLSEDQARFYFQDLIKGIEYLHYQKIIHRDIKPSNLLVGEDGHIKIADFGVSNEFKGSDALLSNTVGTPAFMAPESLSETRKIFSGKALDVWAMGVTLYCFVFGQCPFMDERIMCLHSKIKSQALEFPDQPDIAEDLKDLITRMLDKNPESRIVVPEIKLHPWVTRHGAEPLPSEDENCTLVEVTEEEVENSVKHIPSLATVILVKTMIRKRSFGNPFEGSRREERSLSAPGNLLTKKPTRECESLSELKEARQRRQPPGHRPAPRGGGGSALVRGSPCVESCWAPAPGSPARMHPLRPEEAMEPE
Sequence of Dual specificity mitogen-activated protein kinase kinase 2 (P36507 whole entry): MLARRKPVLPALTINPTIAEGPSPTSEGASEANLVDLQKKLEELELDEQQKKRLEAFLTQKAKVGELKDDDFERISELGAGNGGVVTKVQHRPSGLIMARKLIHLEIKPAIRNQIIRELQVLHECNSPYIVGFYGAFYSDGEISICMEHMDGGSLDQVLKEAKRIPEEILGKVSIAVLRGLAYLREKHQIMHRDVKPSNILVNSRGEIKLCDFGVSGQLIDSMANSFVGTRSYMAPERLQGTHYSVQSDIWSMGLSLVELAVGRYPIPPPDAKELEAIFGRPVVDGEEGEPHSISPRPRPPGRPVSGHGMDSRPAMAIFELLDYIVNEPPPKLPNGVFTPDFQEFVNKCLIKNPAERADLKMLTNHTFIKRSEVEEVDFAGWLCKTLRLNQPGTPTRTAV
Sequence of Receptor tyrosine-protein kinase erbB-2 (P04626 whole entry): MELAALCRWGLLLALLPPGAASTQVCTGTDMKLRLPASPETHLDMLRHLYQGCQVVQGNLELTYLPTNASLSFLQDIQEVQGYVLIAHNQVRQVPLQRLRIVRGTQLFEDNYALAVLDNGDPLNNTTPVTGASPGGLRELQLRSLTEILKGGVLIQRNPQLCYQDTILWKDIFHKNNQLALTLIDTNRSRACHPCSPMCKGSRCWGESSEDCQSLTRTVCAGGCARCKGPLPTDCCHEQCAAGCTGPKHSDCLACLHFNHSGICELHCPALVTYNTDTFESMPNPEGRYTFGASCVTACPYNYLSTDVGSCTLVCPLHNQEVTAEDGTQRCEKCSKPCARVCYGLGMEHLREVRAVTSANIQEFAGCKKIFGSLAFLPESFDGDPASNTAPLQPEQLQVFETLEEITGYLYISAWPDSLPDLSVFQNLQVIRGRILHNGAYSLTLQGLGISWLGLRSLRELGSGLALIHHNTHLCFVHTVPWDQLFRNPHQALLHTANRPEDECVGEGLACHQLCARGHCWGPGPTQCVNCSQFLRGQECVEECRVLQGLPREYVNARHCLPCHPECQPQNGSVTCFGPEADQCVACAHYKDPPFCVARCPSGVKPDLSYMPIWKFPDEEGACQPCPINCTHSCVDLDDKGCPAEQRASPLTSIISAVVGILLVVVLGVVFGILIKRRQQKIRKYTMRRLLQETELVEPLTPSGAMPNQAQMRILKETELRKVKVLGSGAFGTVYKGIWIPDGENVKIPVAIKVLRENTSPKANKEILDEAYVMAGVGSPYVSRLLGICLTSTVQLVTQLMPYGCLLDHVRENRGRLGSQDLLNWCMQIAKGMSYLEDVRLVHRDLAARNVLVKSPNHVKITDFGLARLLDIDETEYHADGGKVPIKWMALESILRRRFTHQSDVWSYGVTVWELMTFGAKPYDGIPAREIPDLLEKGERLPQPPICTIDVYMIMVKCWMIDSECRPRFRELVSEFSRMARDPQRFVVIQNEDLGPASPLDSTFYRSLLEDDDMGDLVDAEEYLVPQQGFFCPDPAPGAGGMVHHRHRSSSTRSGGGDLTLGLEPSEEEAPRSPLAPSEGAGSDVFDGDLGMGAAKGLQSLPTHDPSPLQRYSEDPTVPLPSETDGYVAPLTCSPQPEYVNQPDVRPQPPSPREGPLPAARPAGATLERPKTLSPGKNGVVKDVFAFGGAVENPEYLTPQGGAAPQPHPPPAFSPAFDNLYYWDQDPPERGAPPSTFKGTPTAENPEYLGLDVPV
Sequence of Tyrosine-protein kinase CSK (P41240 whole entry): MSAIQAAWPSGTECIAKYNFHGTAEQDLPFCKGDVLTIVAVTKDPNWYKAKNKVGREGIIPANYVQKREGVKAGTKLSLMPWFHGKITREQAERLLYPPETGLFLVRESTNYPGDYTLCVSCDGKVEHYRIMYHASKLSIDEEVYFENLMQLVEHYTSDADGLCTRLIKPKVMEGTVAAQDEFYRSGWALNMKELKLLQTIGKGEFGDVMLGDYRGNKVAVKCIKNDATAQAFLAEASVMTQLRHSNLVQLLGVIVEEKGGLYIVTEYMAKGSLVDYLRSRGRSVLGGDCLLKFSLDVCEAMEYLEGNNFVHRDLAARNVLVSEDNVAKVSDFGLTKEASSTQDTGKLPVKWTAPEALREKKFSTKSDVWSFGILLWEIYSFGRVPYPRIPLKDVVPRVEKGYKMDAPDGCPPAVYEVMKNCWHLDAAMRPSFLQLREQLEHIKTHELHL
Sequence of Tyrosine-protein kinase Fyn (P06241 whole entry): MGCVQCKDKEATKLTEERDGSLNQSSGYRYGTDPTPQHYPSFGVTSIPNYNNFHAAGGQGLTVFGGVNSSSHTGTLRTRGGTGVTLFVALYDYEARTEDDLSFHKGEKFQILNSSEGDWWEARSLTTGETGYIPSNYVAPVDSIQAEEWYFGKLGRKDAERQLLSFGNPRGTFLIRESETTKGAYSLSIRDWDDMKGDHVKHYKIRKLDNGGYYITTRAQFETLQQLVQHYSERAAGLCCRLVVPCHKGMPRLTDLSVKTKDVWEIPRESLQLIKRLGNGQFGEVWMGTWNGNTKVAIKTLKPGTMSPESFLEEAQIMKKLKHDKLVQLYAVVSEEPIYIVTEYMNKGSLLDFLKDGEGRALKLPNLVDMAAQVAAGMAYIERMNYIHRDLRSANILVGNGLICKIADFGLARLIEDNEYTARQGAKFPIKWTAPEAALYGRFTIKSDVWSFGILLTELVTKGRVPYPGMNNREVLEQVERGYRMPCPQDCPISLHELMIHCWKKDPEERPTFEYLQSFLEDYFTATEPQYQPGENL

## C=CC(=O)N1CCC(Cn2cc(-c3ccc4c(c3)OCO4)c3c(N)ncnc32)CC1
[1]
  pIC50: 5.95
[2]
  pIC50: < 5.00
[3]
  pIC50: 5.95
THP-1
  pIC50: 4.41
[4]
  AUC(0-t) at 24 h: 1240 ng·h/mL
[5]
  inhibition: Active
[6]
  pIC50: < 5.00
[7]
  Activity: Non-Toxic
[8]
  CL: 137 mL/min/kg
[9]
  pIC50: 6.00
[10]
  half-life at 100 µM: 5.5 h
[11]
  pIC50: < 5.00
[12]
  Tmax: 0.96 h
[13]
  pIC50: < 5.00
[14]
  inhibition: Dose-dependent effect
[15]
  half-life at 100 µM: 2.82 h
Mus musculus [16]
  Activity: Active
[17]
  Activity: Non-Toxic
[18]
  pIC50: 6.20
[19]
  pIC50: 6.00
[20]
  pIC50: 6.48
[21]
  pIC50: < 5.00
[22]
  CLH: 4.2 µL/min/mg
[23]
  CLH: 4.4 µL/min/mg
[24]
  pIC50: < 5.00
Mus musculus [25]
  Activity: Active
[26]
  pIC50: < 5.00
[27]
  pIC50: < 5.00
[28]
  pIC50: < 5.00
[29]
  pIC50: < 5.00
[30]
  inhibition: Dose-dependent effect
[31]
  Activity: Non-Toxic
[32]
  CLH: 7.4 µL/min/mg
[33]
  half-life at 100 µM: 3.12 h
[34]
  pIC50: < 5.00
[35]
  Activity: Non-Toxic
[36]
  pIC50: 6.18
[37]
  pIC50: < 5.00
[38]
  Activity: Non-Toxic
